The record followed here is patent publication US8664257B2, “Oxygen-substituted 3-heteroaroylamino-propionic acid derivatives and their use as pharmaceuticals” (Sanofi, priority 2010, dated 2014).

Bounds are passed on as bounds.

For one assay, the target named is T1, Recombinant human cathepsin A (Homo sapiens, UniProt P10619).
T1 construct: Recombinant human cathepsin A (residues 29-480, with a C-terminal 10-His tag); 10-His (C); purchased R&D Systems 1049-SE
T1 sequence (P10619 29-312 limits assumed): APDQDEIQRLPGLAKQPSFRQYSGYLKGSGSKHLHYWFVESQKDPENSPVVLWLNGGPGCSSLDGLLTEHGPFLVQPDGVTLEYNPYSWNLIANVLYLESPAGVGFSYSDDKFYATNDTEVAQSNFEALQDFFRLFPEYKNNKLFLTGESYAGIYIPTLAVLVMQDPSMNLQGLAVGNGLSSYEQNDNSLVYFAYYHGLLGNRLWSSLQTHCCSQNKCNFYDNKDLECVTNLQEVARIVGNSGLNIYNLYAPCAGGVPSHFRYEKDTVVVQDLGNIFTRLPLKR
T1 sequence (P10619 327-480 limits assumed): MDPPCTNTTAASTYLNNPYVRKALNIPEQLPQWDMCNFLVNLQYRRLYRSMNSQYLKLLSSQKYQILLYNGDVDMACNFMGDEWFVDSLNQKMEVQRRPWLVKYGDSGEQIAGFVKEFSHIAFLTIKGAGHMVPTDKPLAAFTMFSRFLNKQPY
The assay is described as follows: Cathepsin A inhibitory activity. The format is biochemical. To be noted: number printed in place of a class symbol; unit from footnote (2); read-out: Activity (2): Cathepsin A inhibitory activity, IC50 printed as a numeric bound. The procedure, abridged:
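Read-out was microfluidic separation of cleaved vs. uncleaved Bodipy FL-bradykinin (2 μM), giving turnover, % inhibition and IC50. Compound and 833 ng/ml enzyme met for 15 min RT in pH 5.5 MES/DTT before substrate (15 min RT). The 29-480 His-tagged human enzyme was first activated by cathepsin L, then E-64 (10 μM).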
The IC50 is the point on the concentration scale where inhibition reaches its midpoint. For `CC(C)[C@@](C)(O)COc1cc(C(=O)N[C@@H](CC(=O)O)c2ccccc2Cl)nn1-c1ccccc1F` [Example 861, (S)-3-(2-Chloro-phenyl)-3-{[1-(2-fluoro-phenyl)-5-((R)-2-hydroxy-2,3-dimethyl-butoxy)-1H-pyrazole-3-carbonyl]-amino}-propionic acid], the IC50 was over 30000 nM.

Staying with this assay, now noted: pharmacological test "Cathepsin A inhibitory activity"; IC50 given as class A/B/C; read-out: Activity (2): Cathepsin A inhibitory activity, IC50 class.
Turning to `O=C(O)CC(NC(=O)c1cc(O)n(-c2ccccc2F)n1)c1ccccc1F` (stereo not drawn) [Example 233], the IC50 lay in the range of 100 to 1000 nM.

Turning to `O=C(O)CC(NC(=O)c1cc(O)n(-c2ccccc2)n1)c1cccc(Cl)c1F` (stereo not drawn) [Example 172], the IC50 was 100 to 1000 nM.

For the compound `COc1ccc(Cl)cc1C(CC(=O)O)NC(=O)c1cc(O)n(-c2ccccc2Cl)n1` (stereo not drawn) [Example 209], the IC50 lay in the range of 100 to 1000 nM.

For `O=C(O)CC(NC(=O)c1cc(O)n(-c2ccccc2)n1)c1cccc(Oc2ccc(Cl)cc2)c1` (stereo not drawn) [Example 173], the IC50 lay in the range of 1000 to 30000 nM.

In the case of `N#Cc1ccc([C@H](CC(=O)O)NC(=O)c2cc(O)n(-c3ccc(F)cc3F)n2)cc1` [Example 176], the IC50 was 100 to 1000 nM.

With `O=C(O)C[C@H](NC(=O)c1cc(O)n(-c2cccc(Cl)c2)n1)c1cccc(C(F)(F)F)c1` [Example 259], the IC50 is 1000 to 30000 nM.

On to `O=C(O)CC(NC(=O)c1cc(O)n(-c2ccccc2Cl)n1)c1ccc(OC(F)(F)F)cc1` (stereo not drawn) [Example 215], for which the IC50 lay within 100 to 1000 nM.

Regarding `O=C(O)C[C@H](NC(=O)c1cc(O)n(-c2ccc(F)cc2F)n1)c1ccccc1Br` [Example 175], the IC50 is 100 to 1000 nM.

Consider `Cc1cc(F)ccc1C(CC(=O)O)NC(=O)c1cc(O)n(-c2ccccc2Cl)n1` (stereo not drawn) [Example 142], for which the IC50 is 100 to 1000 nM.

Take `O=C(O)C[C@H](NC(=O)c1cc(O)n(-c2ccc(F)cc2F)n1)c1cccc(Cl)c1Cl` [Example 181]: the IC50 was under 100 nM.

Still in this assay, the particulars now being: read-out: Activity (2): Cathepsin A inhibitory activity (IC50 class).
In the case of `CCOc1cc(C(=O)NC(CC(=O)O)c2ccc(F)cc2C)nn1-c1ccccc1Cl` (stereo not drawn) [Example 738], the IC50 is under 100 nM.

In the case of `CCOc1cc(C(=O)N[C@@H](CC(=O)O)c2ccc(C#N)cc2)nn1-c1ccccc1F` [Example 710], the IC50 lay in the range of 100 to 1000 nM.

`CCOc1cc(C(=O)N[C@@H](CC(=O)O)c2ccccc2C)nn1-c1ccccc1Cl` [Example 727]: the IC50 was under 100 nM.

Consider `CCOc1cc(C(=O)N[C@@H](CC(=O)O)c2ccccc2C(F)(F)F)nn1-c1ccccc1Cl` [Example 741], for which the IC50 fell in the range of 100 to 1000 nM.

In the case of `COc1cc(C(=O)N[C@@H](CC(=O)O)c2ccccc2)nn1-c1ccccc1F` [Example 665], the IC50 is under 100 nM.

Turning to `Cc1ccccc1[C@H](CC(=O)O)NC(=O)c1cc(OCCC(C)(C)C)n(-c2ccccc2F)n1` [Example 659], the IC50 is under 100 nM.

As to `O=C(O)CC(NC(=O)c1cc(O)n(-c2ccccc2F)n1)c1ccc(-c2cccc(Cl)c2)cc1` (stereo not drawn) [Example 541], the IC50 lay in the range of 100 to 1000 nM.

Turning to `NS(=O)(=O)c1cccc(-n2nc(C(=O)NC(CC(=O)O)c3ccc(-c4ccc(F)cc4)cc3)cc2O)c1` (stereo not drawn) [Example 606], the concentration for half-maximal inhibition (IC50) lay within 100 to 1000 nM.

As for `Cc1cc(COc2cc(C(=O)N[C@@H](CC(=O)O)c3ccccc3C)nn2-c2ccccc2F)on1` [Example 643], the half-maximal inhibitory concentration (IC50) is under 100 nM.

For the compound `COc1ccc(C(F)(F)F)cc1C(CC(=O)O)NC(=O)c1cc(O)n(-c2ccccc2F)n1` (stereo not drawn) [Example 554, 3-{[1-(2-Fluoro-phenyl)-5-hydroxy-1H-pyrazole-3-carbonyl]-amino}-3-(2-methoxy-5-trifluoromethyl-phenyl)-propionic acid], the IC50 was 1000 to 30000 nM.

Turning to `Cc1c(F)cccc1C(CC(=O)O)NC(=O)c1cc(OCC2CC2)n(-c2ccccc2F)n1` (stereo not drawn) [Example 684, 3-{[5-Cyclopropylmethoxy-1-(2-fluoro-phenyl)-1H-pyrazole-3-carbonyl]-amino}-3-(3-fluoro-2-methyl-phenyl)-propionic acid], the IC50 was under 100 nM.

Take `Cc1ccccc1[C@H](CC(=O)O)NC(=O)c1cc(OCC2CCCO2)n(-c2ccccc2F)n1` (stereo partly drawn) [Example 642]: the IC50 was under 100 nM.

Regarding `Cc1ccccc1[C@H](CC(=O)O)NC(=O)c1cc(OCC(C)(O)C2CC2)n(-c2ccccc2F)n1` (stereo partly drawn) [Example 757, (S)-3-{[5-(2-Cyclopropyl-2-hydroxy-propoxy)-1-(2-fluoro-phenyl)-1H-pyrazole-3-carbonyl]-amino}-3-o-tolyl-propionic acid], the IC50 is under 100 nM.

The same assay, now with this note: read-out: Activity (2): Cathepsin A inhibitory activity, IC50 class.
Turning to `O=C(O)C[C@H](NC(=O)c1cc(O)n(-c2cccc(F)c2)n1)c1cccc(C(F)(F)F)c1` [Example 318], the IC50 is 100 to 1000 nM.

`O=C(O)C[C@H](NC(=O)c1cc(O)n(-c2ccc(Cl)cc2)n1)c1cccc(Cl)c1Cl` [Example 277]: the IC50 was in the range of 100 to 1000 nM.

With `Cc1ccccc1[C@H](CC(=O)O)NC(=O)c1cc(O)n(-c2ccc(F)cc2)n1` [Example 76], the IC50 is under 100 nM.

Turning to `Cc1ccc(C)c(-n2nc(C(=O)NC(CC(=O)O)CC(C)C)cc2O)c1` (stereo not drawn) [Example 38], the concentration for half-maximal inhibition (IC50) fell in the range of 1000 to 30000 nM.

In the case of `O=C(O)CC(NC(=O)c1cc(O)n(-c2cccc(F)c2)n1)c1ccc(Cl)c(Cl)c1` (stereo not drawn) [Example 328], the IC50 lay in the range of 100 to 1000 nM.

Take `Cc1ccc(C(CC(=O)O)NC(=O)c2cc(O)n(-c3ccc(F)cc3)n2)c(C)c1` (stereo not drawn) [Example 89]: the IC50 fell in the range of 100 to 1000 nM.

Take `O=C(O)C[C@H](NC(=O)c1cc(O)n(-c2cccc(F)c2)n1)c1cccc(F)c1` [Example 312]: the IC50 fell in the range of 100 to 1000 nM.

Turning to `Cc1cccc([C@H](CC(=O)O)NC(=O)c2cc(O)n(-c3ccccc3)n2)c1` [Example 376], the IC50 fell in the range of 100 to 1000 nM.

Regarding `O=C(O)CC(NC(=O)c1cc(O)n(-c2ccc(F)cc2)n1)c1cccc(C(F)(F)F)c1F` (stereo not drawn) [Example 360], the IC50 was 100 to 1000 nM.

`CC(C)(C)[C@H](O)COc1cc(C(=O)N[C@@H](CC(=O)O)c2ccccc2Cl)nn1-c1ccccc1F` [Example 797, (S)-3-(2-Chloro-phenyl)-3-{[1-(2-fluoro-phenyl)-5-((S)-2-hydroxy-3,3-dimethyl-butoxy)-1H-pyrazole-3-carbonyl]-amino}-propionic acid]: the IC50 is under 100 nM.

With `O=C(O)C[C@H](NC(=O)c1cc(O)n(-c2ccc(Cl)cc2)n1)c1c(F)cccc1F` [Example 295], the IC50 was 1000 to 30000 nM.

For `CC(C)[C@](C)(O)COc1cc(C(=O)NC(CC(=O)O)C2CCCCC2)nn1-c1ccccc1F` (stereo partly drawn) [Example 803, 3-Cyclohexyl-3-{[1-(2-fluoro-phenyl)-5-((S)-2-hydroxy-2,3-dimethyl-butoxy)-1H-pyrazole-3-carbonyl]-amino}-propionic acid], the IC50 was under 100 nM.

For `O=C(O)C[C@H](NC(=O)c1cc(O)n(-c2ccc(F)cc2)n1)c1c(F)cccc1F` [Example 368], the IC50 lay in the range of 100 to 1000 nM.

As to `Cc1cc(F)ccc1C(CC(=O)O)NC(=O)c1cc(O)n(-c2ccccc2)n1` (stereo not drawn) [Example 85], the IC50 lay within 100 to 1000 nM.

Regarding `COc1cccc([C@H](CC(=O)O)NC(=O)c2cc(O)n(-c3ccccc3Cl)n2)c1OC` [Example 394], the IC50 lay within 100 to 1000 nM.

Consider `O=C(O)CC(NC(=O)c1cc(O)n(-c2ccc(Cl)cc2)n1)c1ccc(Oc2ccccc2)cc1` (stereo not drawn) [Example 294], for which the IC50 fell in the range of 1000 to 30000 nM.

Take `O=C(O)C[C@H](NC(=O)c1cc(O)n(-c2ccc(Cl)cc2)n1)c1ccc(F)cc1` [Example 276]: the IC50 fell in the range of 1000 to 30000 nM.

Staying with this assay, now noted: recombinant human cathepsin A 833 ng/ml, Bodipy FL-labeled bradykinin 2 μM, pH 5.5; read-out: CATH-A IC50.
As for `COc1cccc(F)c1C(CC(=O)O)NC(=O)c1cc(O)n(-c2ccccc2Cl)n1` (stereo not drawn) [Example 457, 3-{[1-(2-Chloro-phenyl)-5-hydroxy-1H-pyrazole-3-carbonyl]-amino}-3-(2-fluoro-6-methoxy-phenyl)-propionic acid], the IC50 is 170 nM.

`Cc1ccc(F)cc1C(CC(=O)O)NC(=O)c1cc(O)n(-c2ccccc2)n1` (stereo not drawn) [Example 497, 3-(5-Fluoro-2-methyl-phenyl)-3-[(5-hydroxy-1-phenyl-1H-pyrazole-3-carbonyl)-amino]-propionic acid]: the IC50 is 145 nM.

As for `COc1ccc(C(F)(F)F)cc1C(CC(=O)O)NC(=O)c1cc(O)n(-c2ccccc2F)n1` (stereo not drawn) [Example 554, 3-{[1-(2-Fluoro-phenyl)-5-hydroxy-1H-pyrazole-3-carbonyl]-amino}-3-(2-methoxy-5-trifluoromethyl-phenyl)-propionic acid], the 50% inhibitory concentration (IC50) came to 1840 nM.

Regarding `CC(C)[C@](C)(O)COc1cc(C(=O)NC(CC(=O)O)C2CCCCC2)nn1-c1ccccc1F` (stereo partly drawn) [Example 803, 3-Cyclohexyl-3-{[1-(2-fluoro-phenyl)-5-((S)-2-hydroxy-2,3-dimethyl-butoxy)-1H-pyrazole-3-carbonyl]-amino}-propionic acid], the IC50 turned out to be 26.7 nM.

The same assay, now with this note: recombinant human cathepsin A; read-out: Activity (2): Cathepsin A inhibitory activity, IC50 class.
For the compound `COc1cccc(F)c1C(CC(=O)O)NC(=O)c1cc(O)n(-c2ccccc2Cl)n1` (stereo not drawn) [Example 457, 3-{[1-(2-Chloro-phenyl)-5-hydroxy-1H-pyrazole-3-carbonyl]-amino}-3-(2-fluoro-6-methoxy-phenyl)-propionic acid], the IC50 fell in the range of 100 to 1000 nM.

Take `COc1ccc(-c2ccc(C(CC(=O)O)NC(=O)c3cc(O)n(-c4ccccc4F)n3)cc2)cn1` (stereo not drawn) [Example 531]: the IC50 fell in the range of 100 to 1000 nM.

Take `O=C(O)C[C@H](NC(=O)c1cc(O)n(-c2cccc(F)c2)n1)c1ccccc1F` [Example 433]: the IC50 fell in the range of 100 to 1000 nM.

In the case of `Cc1ccc(F)cc1C(CC(=O)O)NC(=O)c1cc(O)n(-c2ccccc2)n1` (stereo not drawn) [Example 497, 3-(5-Fluoro-2-methyl-phenyl)-3-[(5-hydroxy-1-phenyl-1H-pyrazole-3-carbonyl)-amino]-propionic acid], the IC50 was in the range of 100 to 1000 nM.

Regarding `COc1cc(C(=O)N[C@@H](CC(=O)N[C@@H](CO)C(C)C)c2ccccc2C)nn1-c1ccccc1F` [Example 927, 1-(2-Fluoro-phenyl)-5-methoxy-1H-pyrazole-3-carboxylic acid [(S)-2-((R)-1-hydroxymethyl-2-methyl-propylcarbamoyl)-1-o-tolyl-ethyl]-amide], the IC50 is 100 to 1000 nM.

Take `O=C(O)CC(NC(=O)c1cc(O)n(-c2cccc(F)c2)n1)c1cc(Cl)ccc1Cl` (stereo not drawn) [Example 488]: the IC50 lay in the range of 100 to 1000 nM.
